What was measured:
[1] = test system: HT-1080 cells; experiment: Inhibition of erastin (10 μM)-induced death in HT-1080 cells (Alamar Blue); type: cell-based, human; conditions: added up to 6 hours after erastin
How it was run: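 HT-1080 cells (1,000/well) were treated next day with 10 μM erastin plus a compound dilution series for 24 h. Alamar Blue (10% final) was then added for 6 h and fluorescence read at ex/em 530/590.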

[2] = test system: HT-1080 cells; experiment: Cytosolic and lipid ROS production (H2DCFDA, C11-BODIPY flow cytometry) in HT-1080 cells; type: cell-based, human; conditions: erastin (10 μM)
Procedure: The day before the experiment, 200,000 cells/well were seeded in 6-well dishes (Corning Inc., Corning, N.Y.). The day of the experiment, cells were treated with test compounds for the indicated times, then harvested by trypsinization, resuspended in 500 μL Hanks Balanced Salt Solution (HBSS, Gibco, Invitrogen Corp., Carlsbad, Calif.) containing either H2DCFDA (25 μM), C11-BODIPY(581/591) (2 μM) or MitoSOX (5 μM) (all from Molecular Probes, Invitrogen) and incubated for 10 minutes at 37° C. in a tissue culture incubator. Cells were then resuspended in 500 μL of fresh HBSS, strained through a […] cell strainer (BD Falcon, BD Biosciences, San Jose, Calif.), and analyzed using a flow cytometer (FACSCalibur or Accuri C6, BD Biosciences), which was equipped with 488-nm laser for excitation. Data was collected from the FL1 (H2DCFDA, C11-BODIPY) or FL2 channel (MitoSOX). A minimum of 10,000 cells were analyzed per condition.

[3] = test system: HT-1080, BJeLR and Calu-1 cells; experiment: Modulatory profiling of cell death inhibitors against erastin; type: cell-based, human; conditions: erastin 10 μM, 24 hours; 10-point, 4-fold dilution series
Procedure: The day before the experiment, cells were seeded in black, 384-well clear bottom plates (Corning) at a density of 1,000 cells/well using a Beckman Biomek FX Workstation. All compounds (except 3-methyladenine and chloroquine, which were diluted in water) were diluted in DMSO at 250 times the final highest test concentration, and aliquoted across a 384-well plate (Greiner, Monroe, N.C.). A ten-point, 4-fold dilution series of each inhibitor in DMSO was made using a multichannel pipette. Replicates of this mother plate were stored at −20° C. […] Medium was removed from cells and replaced with 36 μL medium containing DMSO (0.1%) or erastin (10 μM final concentration). Using the Biomek FX, 4 μL were then transferred from each inhibitor daughter plate into the DMSO-containing or erastin-containing assay plates. For 3-methyladenine and chloroquine, inhibitors were prepared fresh in media at 10-fold the final concentration in the presence of DMSO or 10 μM erastin. These solutions were manually pipetted onto cells in 384-well format. Assay plates were incubated at 37° C. for 24 hours. Viability was assessed using Alamar Blue.
The modulatory effect (Me) for drug-drug interactions was computed as follows. First, plate-based background correction was performed using Alamar Blue values from empty (cell-free) wells included on each plate. Next, within each experiment, 100% viability is determined as the average Alamar Blue score for cells treated with modulator=DMSO and lethal=DMSO, and all Alamar Blue values were scaled from 0 to 1 with the DMSO×DMSO condition=1. The individual effects of each modulator and lethal (e.g. in the presence of DMSO) at all tested doses were then ascertained. […] Next, BExp was compared to the actual observed viability. […] By default, Me in DMSO-treated cells is equal to 0. […] Me values for each inhibitor-lethal drug combination were hierarchically clustered and plotted as a heatmap using the heatmaps.2 function of the gplots library in R.

[4] = test system: Calu-1 cells; experiment: Erastin-induced ferroptosis in Calu-1 cells, NOX pathway inhibitors; type: cell-based, human
Procedure: Cell viability was typically assessed in 384-well format by Alamar Blue (Invitrogen) fluorescence (ex/em 530/590) measured on a Victor3 platereader (Perkin Elmer, Waltham, Mass.). In some experiments, Trypan Blue dye exclusion counting was performed using an automated cell counter (ViCell, Beckman-Coulter Inc., Brea, Calif.). Cell viability in test conditions is reported as a percentage relative to the negative control treatment.

[5] = test system: mouse kidney proximal tubules; experiment: Hydroxyquinoline + iron induced cell death in isolated mouse kidney proximal tubules (LDH release); type: cell-based; conditions: 10 μM hydroxyquinoline and ferrous ammonium sulfate, 60 min
Procedure: Tubule preparation: 8-12 week old C57/BL6 female mice were euthanized with isoflurane. […] The cortices were then dissected and minced on an ice cold tile, then resuspended in additional Solution A for 8-10 min. of digestion at 37° C. followed by enrichment of proximal tubules using centrifugation on self-forming Percoll gradients as previously described for rabbit tubules.
Experimental procedures for isolated tubules: Tubules were suspended at 1.5-2.0 mg tubule protein/ml in a 95% air/5% CO2-gassed medium containing (in mM) 110 NaCl, 2.6 KCl, 25 NaHCO3, 2.4 KH2PO4, 1.25 CaCl2, 1.2 MgCl2, 1.2 MgSO4, 5 glucose, 4 sodium lactate, 0.3 alanine, 5 sodium butyrate, 2 glycine, and 1.0 mg/ml bovine gelatin (75 bloom) (Solution B). After precincubation for 15 min. at 37° C., then were then resuspended in fresh Solution B containing 2 mM heptanoic acid instead of sodium butyrate along with experimental compounds.
In addition, the efficacy of Fer-1, SRS11-92, and selected analogs was tested in a model of iron-induced cell death in freshly isolated mouse kidney proximal tubules that simulates major elements of rhabdomyolysis-induced acute kidney injury (FIG. 15C). Cell death in this model is known to involve oxidative lipid damage (Sogabe, et al., 1996, Park, et al., 2011); it was therefore believed that Fer-1 might be protective. 10 μM each of hydroxyquinoline and ferrous ammonium sulfate (HQ+Fe) were used to induce cell death, which was quantified by monitoring LDH release after 60 min. […] By implication, cell death in these models may involve, at least in part, the induction of lipid peroxidation and perhaps ferroptosis.

[6] = test system: rat organotypic hippocampal slice culture (OHSC); experiment: Glutamate excitotoxic injury in organotypic hippocampal slice cultures (PI uptake); type: cell-based; conditions: 5 mM L-glutamate 3 hours; Fer-1 2 μM, CPX 5 μM, MK-801 10 μM; 24 hours
Procedure: OHSCs were cultured as previously described (Morrison et al., 2002) with approval from Columbia University's Institutional Animal Care and Use Committee (IACUC). Briefly, Sprague Dawley rat pups (P8-P10) were rapidly decapitated, and the hippocampus placed in ice-cold Gey's balanced salt solution (Sigma). 400 μm thick sections were cut using a Mcllwain tissue chopper and immediately plated on Millicell cell culture inserts (Millipore, Billerica, Mass.) in Neurobasal (Invitrogen) media supplemented with B27 (1×, Invitrogen), GlutaMAX (1 mM, Invitrogen), and D-glucose (4.5 mg/mL, Sigma) at 37° C. and 5% CO2. After 2 days in vitro (DIV), the media was changed to medium containing serum comprised of 50% DMEM (Sigma), 25% heat-inactivated horse serum (Sigma), 25% Hank's balanced salt solution (Sigma), GlutaMAX (1 mM, Invitrogen), and D-glucose (4.5 mg/mL, Sigma). Medium was changed every 2-3 days.
After 10-14 DIV, OBSCs were exposed to an excitotoxic injury consisting of a 3 hour exposure to 5 mM L-glutamate in SFM (Morrison et al., 2002). […] After the 3 hour exposure, the cultures were placed in fresh serum free media (SFM) containing 75% DMEM, 25% Hank's balanced salt solution, GlutaMAX (1 mM), D-glucose (4.5 mg/mL) until cell death was quantified at 24 hours. […]
Quantification of cell death has been described previously (Cater et al., 2007; Morrison et al., 2002). […] Percentage cell death was expressed as the number of pixels in the ROI above a threshold in the PI fluorescent image divided by the total number of pixels in the ROI.
OHSCs were treated with a lethal excitotoxic stimulus (5 mM L-glutamate, 3 hours) that mimics the consequences of stroke and neurodegenerative disease (Morrison et al., 2002; Sundstrom et al., 2005) (FIG. 5A). […] The effects of these compound treatments on propidium iodide (PI) uptake were analyzed, as an indicator of cell death, 24 hours following the end of glutamate treatment, in 3 defined regions of the OHSCs: the dentate gyrus (DG), the CA1 and the CA3 fields of the hippocampus.

[7] = target: T1, system xc− (Homo sapiens, UniProt Q9UPY5); experiment: [14C]Cystine uptake assay in HT-1080 cells; type: cell-based; conditions: Erastin 10 μM, glutamate 50 mM, SAS 1 mM
T1 construct: endogenous in cells; host or cells: HT-1080 cells (ATCC)
T1 sequence (Q9UPY5 1-501): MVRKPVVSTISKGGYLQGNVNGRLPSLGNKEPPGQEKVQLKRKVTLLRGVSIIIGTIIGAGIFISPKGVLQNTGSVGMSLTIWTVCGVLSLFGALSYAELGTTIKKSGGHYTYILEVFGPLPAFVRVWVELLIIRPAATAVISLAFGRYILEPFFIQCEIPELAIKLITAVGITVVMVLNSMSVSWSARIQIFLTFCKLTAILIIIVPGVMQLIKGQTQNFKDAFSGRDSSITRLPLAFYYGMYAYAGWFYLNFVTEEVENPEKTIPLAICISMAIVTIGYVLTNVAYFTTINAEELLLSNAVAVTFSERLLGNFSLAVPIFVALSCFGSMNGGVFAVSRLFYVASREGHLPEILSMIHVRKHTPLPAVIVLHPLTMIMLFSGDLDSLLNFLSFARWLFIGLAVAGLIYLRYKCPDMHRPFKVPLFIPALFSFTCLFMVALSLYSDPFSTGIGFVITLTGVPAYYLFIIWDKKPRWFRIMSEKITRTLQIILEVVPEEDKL
T1 sequence (P08195 1-529 partner): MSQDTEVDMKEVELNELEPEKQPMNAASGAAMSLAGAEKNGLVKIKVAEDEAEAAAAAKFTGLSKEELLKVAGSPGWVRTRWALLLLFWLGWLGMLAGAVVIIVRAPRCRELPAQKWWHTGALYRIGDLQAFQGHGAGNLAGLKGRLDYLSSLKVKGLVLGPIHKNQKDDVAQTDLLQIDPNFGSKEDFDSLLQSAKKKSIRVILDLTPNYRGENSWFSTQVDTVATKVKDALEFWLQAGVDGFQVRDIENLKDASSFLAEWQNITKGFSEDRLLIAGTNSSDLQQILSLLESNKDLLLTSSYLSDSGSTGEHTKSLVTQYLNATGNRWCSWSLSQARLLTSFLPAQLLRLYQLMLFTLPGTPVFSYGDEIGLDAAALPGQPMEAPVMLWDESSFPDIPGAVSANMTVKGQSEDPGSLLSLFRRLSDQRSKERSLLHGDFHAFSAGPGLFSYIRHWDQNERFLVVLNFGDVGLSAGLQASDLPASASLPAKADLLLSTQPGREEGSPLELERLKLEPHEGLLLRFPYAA
Procedure: 200,000 HT-1080 cells/well were seeded overnight in 6-well dishes (Corning). […] At this point, in each well the buffer was replaced with 600 μL uptake buffer containing compound and 0.12 μCi (80-110 mCi/mmol) of L-[3,3′-^14C]-cystine (Perkin Elmer) and incubated for 3 minutes at 37° C. Cells were then washed three times with ice-cold uptake buffer and lysed in 500 μL 0.1 M NaOH. To this lysate was added 15 mL of scintillation fluid and radioactive counts per minute were obtained using a scintillation counter. All measurements were performed in triplicate for each condition.

[8] = test system: HT-1080 cells; experiment: Mitochondrial ROS (MitoSOX) in HT-1080 cells; type: cell-based, human; conditions: HT-1080, 6 hours; erastin 10 μM, rotenone 250 nM
Procedure: 200,000 HT-1080 cells were seeded into 6-well dishes (Corning). The next day, cells were treated with +/−rotenone +/−ferrostatin-1 for 3 hours (for MitoSOX experiments) or +/−STS +/−ferrostatin-1 for 4 hours (for 10-N-nonylacridine orange [NAO] experiments), harvested by trypsinization and analyzed as follows. For the analysis of mitochondrial ROS, cells were incubated with 5 μM MitoSOX (Molecular Probes/Invitrogen) in HBSS for 10 minutes in the dark at 37° C. […] MitoSOX data were collected in the FL2 channel and NAO data was collected in the FL1 channel. Data are from three independent biological replicates of each experiment. Data were analyzed by one-way ANOVA with Bonferroni's post-hoc test.

For `N#CC(=C(N)Sc1ccccc1N)C(C#N)=C(N)Sc1ccccc1N` [Compound U0126, 1,4-diamino-2,3-dicyano-1,4-bis (2-aminophenylthio)butadiene], the “protection when added after erastin” value [1] was “substantial protection from death”, the “effect of inhibitor on erastin-induced ROS accumulation” value [2] was “prevented the accumulation of H2DCFDA-sensitive ROS” and the “modulation of erastin-induced death” value [3] was “rescued from erastin-induced death”.
In the case of `c1ccc2c(c1)[I+]c1ccccc1-2` [DPI, diphenylene iodonium], the “suppression of erastin-induced ferroptosis” value [4] is reported as “strongly suppressed”.
For `CN(C)c1cccc(-c2c3c(=O)n(-c4ccccc4Cl)[nH]c3cc(=O)n2C)c1` [GKT137831, reference compound], the “HQ+Fe induced lethality (LDH release)” value [5] was “protective” and the “suppression of erastin-induced ferroptosis” value [4] was “strongly suppressed”.
With `C[C@]12N[C@H](Cc3ccccc31)c1ccccc12` [MK-801] the “glutamate-induced cell death (PI uptake) in DG, CA1, CA3” value [6] was “attenuated significantly”.
For `O=C(O)c1cc(/N=N/c2ccc(S(=O)(=O)Nc3ccccn3)cc2)ccc1O` [SAS, sulfasalazine], the “Na+-independent uptake of [14C]cystine” value [7] was “abolished”.
In the case of `N[C@@H](CCC(=O)O)C(=O)O` [glutamate], the “Na+-independent uptake of [14C]cystine” value [7] is reported as “abolished”.
For `C=C(C)[C@H]1Cc2c(ccc3c2O[C@@H]2COc4cc(OC)c(OC)cc4[C@@H]2C3=O)O1` [rotenone, reference compound], the “MitoSOX-sensitive mitochondrial ROS production” value [8] was “enhanced MitoSOX-sensitive ROS production”.
In the case of `Cc1c(C)c2c(c(C)c1O)CCC(C)(C(=O)O)O2` (stereo not shown) [trolox, 6-hydroxy-2,5,7,8-tetramethylchroman-2-carboxylic acid], the “protection when added after erastin” value [1] is reported as “substantial protection from death”, the “effect of inhibitor on erastin-induced ROS accumulation” value [2] is reported as “prevented the accumulation of H2DCFDA-sensitive ROS” and the “modulation of erastin-induced death” value [3] is reported as “rescued from erastin-induced death”.
